We go through two molecules from BindingDB's records for doi:10.1021/np200492k (Seoul National University, 2011).

The IC50 is the midpoint of a concentration-inhibition curve.

One assay deals with T1, Sortase family protein (Staphylococcus aureus, UniProt Q9S446).
T1 sequence (Q9S446 whole entry): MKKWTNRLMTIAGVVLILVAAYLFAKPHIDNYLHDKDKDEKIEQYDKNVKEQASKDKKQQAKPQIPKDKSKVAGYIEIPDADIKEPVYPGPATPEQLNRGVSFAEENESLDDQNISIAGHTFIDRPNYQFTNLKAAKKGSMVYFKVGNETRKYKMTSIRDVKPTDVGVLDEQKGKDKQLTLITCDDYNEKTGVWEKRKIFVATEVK
The assay is described as follows: Inhibition of recombinant Staphylococcus aureus ATCC 6538p sortase lacking the N-terminal membrane anchor domain expressed in Escherichia coli cells TOP10 using Dabcyl-QALPETGEE-Edans substrate measured after 1 hr by fluorescence S13 spectrophotometry.

In another assay the target is Isocitrate lyase (Candida albicans, UniProt Q9P8Q7). The assay is described as follows: Inhibition of Candida albicans isocitrate lyase.
Chain of Isocitrate lyase (Q9P8Q7 whole entry): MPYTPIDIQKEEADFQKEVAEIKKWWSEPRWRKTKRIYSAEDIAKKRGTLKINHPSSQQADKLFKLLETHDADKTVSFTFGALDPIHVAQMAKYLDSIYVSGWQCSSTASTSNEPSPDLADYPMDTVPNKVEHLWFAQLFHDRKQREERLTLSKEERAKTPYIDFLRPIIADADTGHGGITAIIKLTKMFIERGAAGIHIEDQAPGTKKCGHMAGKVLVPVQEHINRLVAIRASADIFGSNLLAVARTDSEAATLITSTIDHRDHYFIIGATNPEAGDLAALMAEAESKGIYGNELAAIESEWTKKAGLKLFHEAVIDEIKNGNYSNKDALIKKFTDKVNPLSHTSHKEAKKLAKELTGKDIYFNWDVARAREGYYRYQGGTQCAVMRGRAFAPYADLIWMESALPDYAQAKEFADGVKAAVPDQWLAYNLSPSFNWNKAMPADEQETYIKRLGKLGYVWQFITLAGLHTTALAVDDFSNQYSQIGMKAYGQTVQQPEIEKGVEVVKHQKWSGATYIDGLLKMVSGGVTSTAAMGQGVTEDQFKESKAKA

On to `O=C(O)c1cc[c]([Hg][OH])cc1`, for which, on Sortase family protein, the IC50 was 116 µM. `CC1(C)CCC[C@]2(C)[C@H]3CC/C(=C\OS(=O)(=O)O)[C@H](CCc4ccoc4)[C@@]3(C)CC[C@@H]12` had an IC50 at Isocitrate lyase of 17 µM.
